Measured values: patent publication US11208446B2, “Agents and methods for treating CBP-dependent cancers” (priority 2016, dated 2021)
Entries after “also recorded” stand apart in the source; their conditions may differ. *: point of attachment. Biotin = O=C1N[C@H]2[C@H](CS[C@H]2CCCCC(=O)*)N1

Experiments:
[1] = biological target: T1, CBP in MV411 human AML cells (Homo sapiens, UniProt Q92793); assay: Streptavidin affinity purification (pull-down) of CBP with biotinylated peptides, Western blot; format: binding; settings: AML cell lysates, competition with non-biotinylated peptide
T1 construct: endogenous in cells; host or cells: MV411 human AML cells (lysate)
Method: Western blot analysis. Cells were lysed in RIPA buffer (Thermo Fisher) supplemented with a protease inhibitor mix comprised of AEBSF (0.5 mM concentration, Santa Cruz, SC-202041B), Bestatin (0.01 mM concentration, Fisher/Alfa Aesar, J61106-MD), Leupeptin (0.1 mM concentration, Santa Cruz, SC-295358B), and Pepstatin (0.001 mM concentration, Santa Cruz, SC-45036A). Lysates were mechanically disrupted using Covaris S220 adaptive focused sonicator, according to the manufacturer's instructions (Covaris, Woburn, Calif.). Lysates were cleared by centrifugation for 15 min at 18,000×g and clarified lysates were quantified using the bicinchoninic acid assay (Pierce). Clarified lysates (20 μg of protein) were resolved using sodium dodecyl sulfate-polyacrylamide gel electrophoresis, and electroeluted using the Immobilon FL PVDF membranes (Millipore, Billerica, Mass., USA). Membranes were blocked using the Odyssey Blocking buffer (Li-Cor, Lincoln, Nebr., USA). […] Blotted membranes were visualized using secondary antibodies conjugated to IRDye 800CW or IRDye 680RD (Goat anti-rabbit, 1:15,000, and goat anti-mouse, 1:15,000) and the Odyssey CLx fluorescence scanner, according to manufacturer's instructions (Li-Cor, Lincoln, Nebr., USA). […]

MOLM13 cells = assay: Confocal microscopy of intranuclear penetration of FITC-labelled peptide; format: cell-based; settings: 50 nM peptide, 20 minutes, human AML cell line
Method: Confocal microscopy. Live confocal imaging was performed using the Leica SP8 confocal microscope and 63× objective with 1 μm z-stack images. Cells were applied to a poly-L-lysine coated chambered Nunc Lab-tek II slide and incubated for 2 hours at 37° C. Prior to imaging, FITC-conjugated peptides were added to cell suspensions at a concentration of 50 nM. Cells were counter-stained using Hoechst 33342 and Mitotracker Red CMX ROS (MProbes) for 10 minutes at a final dilution of 1:10,000 prior to imaging.

purified CBP-KIX domain = biological target: T2, purified CBP-KIX domain (Homo sapiens, UniProt Q92793); assay: Microscale thermopheresis (MST) binding of FITC-conjugated peptides to purified KIX; settings: FITC-conjugated peptide at fixed concentration, KIX 0.015 to 50 μM, n=3
T2 construct: Expression and purification of recombinant CBP KIX domain; GST (N, cleaved yes); made in house; host or cells: E. coli BL21(DE3)
Method: Expression and purification of recombinant CBP KIX domain. BL21(DE3) cells (Invitrogen) transformed with pGEX-KIX plasmid were induced at 37° C. with isopropyl β-D-1-thiogalactopyranoside for 3 hours. Cells were lysed in 50 mM Tris-HCl pH 7.3, 150 mM NaCl, 0.1% TWEEN-20, 1 mM DTT, 5 mM EDTA, supplemented with protease inhibitors described above and sonicated for ten minutes (15 sec on, 15 sec off, 40% amplitude) using the Misonix probe sonicator (Qsonica, Newtown, Conn.). Lysate was cleared by centrifugation for 1 h at 21,800×g at 4° C. Cleared lysate was incubated with 4 mL glutathione agarose resin slurry (GoldBio) for 1 h at 4° C. to capture GST-KIX. Resin was washed four times with 50 mM Tris-HCl pH 7.4, 150 mM NaCl. KIX domain was cleaved from GST by incubation of resin-bound GST-KIX with 160 U thrombin (GE Healthcare) overnight at room temperature. Resin was centrifuged at 500×g for 5 min. Supernatant containing cleaved KIX was collected and dialyzed at 4° C. against 50 mM MOPS pH 6.5, 50 mM NaCl, 10% glycerol, 1 μM tris-2-carboxyethylphosphine. KIX was purified using a linear gradient of 50 mM to 1 M NaCl by cation exchange chromatography using MonoS 5/50 GL column (GE Healthcare). Fractions containing purified KIX were dialyzed against 50 mM potassium phosphate pH 5.5, 150 mM NaCl, 10 μM tris-2-carboxyethylphosphine, 30% glycerol, and stored at −80° C. […]

[2] = tested on: MOLM13, MV411, ML2, and HL60 cell lines; assay: Cell viability, live cell count by Trypan blue exclusion; format: cell-based, human; settings: 10 μM and 20 μM every 48 hours for 6 days
Method: Cell culture. The human AML lines MV411, MOLM13, ML2, and HL60 were obtained from the American Type Culture Collection (ATCC, Manassas, Va., USA). Umbilical cord blood was obtained from the New York Blood Center. The identity of all cell lines was verified by STR analysis (Genetica DNA Laboratories, Burlington, N.C., USA) and absence of Mycoplasma sp. contamination was determined using Lonza MycoAlert (Lonza Walkersville, Inc., Walkersville, Md., USA). Cell lines were cultured in 5% CO2 in a humidified atmosphere at 37° C. in RPMI medium supplemented with 10% fetal bovine serum (FBS) and antibiotics (100 U/ml penicillin and 100 μg/ml streptomycin). Cell viability analysis. Cells were resuspended and plated at a concentration of 2×10^5 cells in 200 μL in 96-well tissue culture plates. Media with peptides was replaced every 48 hours. To assess the number of viable cells, cells were resuspended in PBS and 10 μL mixed in a 1:1 ratio with 0.4% Trypan Blue (Thermo Fisher) and counted using a hematocytometer (Hausser Scientific, Horsham, Pa., USA). To assess viability using an ATP-based assay, cell viability was assessed using the CellTiter-Glo Luminescent Viability assay, according to the manufacturer's instructions (Promega). Luminescence was recorded using the Infinite M1000Pro plate reader using integration time of 250 milliseconds (Tecan).

MYB:CBP complex = biological target: T3, MYB:CBP complex (Homo sapiens, UniProt Q92793); assay: Dissociation of MYB:CBP complex in AML cells (co-immunoprecipitation); format: cell-based
T3 construct: endogenous in cells; host or cells: MV411 human AML cells
Method: Co-immunoprecipitation analysis. 7.5 μg of indicated antibodies were conjugated to 1 mg M-270 Epoxy-coated magnetic beads (Invitrogen) according to manufacturer's instructions. 1×10^7 MV411 cells were collected and washed in cold PBS. Washed cell pellets were resuspended in 350 μL cold lysis buffer (50 mM Tris-HCl pH 7.4, 150 mM NaCl, 1 mM EDTA, 1 mM DTT, 0.5% Triton X-100, supplemented with protease inhibitors described above) and incubated on ice for 10 min. Cells were mechanically disrupted using the Covaris […] adaptive focused sonicator at 50 W peak power, 10% duty cycle, 200 cycles per burst at 4° C. for 300 sec. Lysate was clarified by centrifugation for 15 min at 18,000×g at 4° C. Supernatant (cleared lysate) was diluted in 1.05 mL dilution buffer (50 mM Tris-HCl, 150 mM NaCl, 1 mM EDTA, 1 mM DTT, 10% glycerol, supplemented with protease inhibitors described above for a total volume of 1.4 mL. Diluted lysate was added to 1 mg beads, and immunoprecipitation proceeded for 3 h at 4° C. with rotation. Beads were then washed with lysis buffer twice. Proteins were eluted in 20 μL EB buffer (Invitrogen) for 5 min at room temperature, and eluate was neutralized with 2 μL 1M Tris pH 11. Samples were prepared for Western blot by addition of Laemmli buffer with 50 mM DTT and incubation at 95° C. for 5 min. Presence of MYB and CBP was identified by Western blot as described above.

T1 sequence (Q92793 whole entry): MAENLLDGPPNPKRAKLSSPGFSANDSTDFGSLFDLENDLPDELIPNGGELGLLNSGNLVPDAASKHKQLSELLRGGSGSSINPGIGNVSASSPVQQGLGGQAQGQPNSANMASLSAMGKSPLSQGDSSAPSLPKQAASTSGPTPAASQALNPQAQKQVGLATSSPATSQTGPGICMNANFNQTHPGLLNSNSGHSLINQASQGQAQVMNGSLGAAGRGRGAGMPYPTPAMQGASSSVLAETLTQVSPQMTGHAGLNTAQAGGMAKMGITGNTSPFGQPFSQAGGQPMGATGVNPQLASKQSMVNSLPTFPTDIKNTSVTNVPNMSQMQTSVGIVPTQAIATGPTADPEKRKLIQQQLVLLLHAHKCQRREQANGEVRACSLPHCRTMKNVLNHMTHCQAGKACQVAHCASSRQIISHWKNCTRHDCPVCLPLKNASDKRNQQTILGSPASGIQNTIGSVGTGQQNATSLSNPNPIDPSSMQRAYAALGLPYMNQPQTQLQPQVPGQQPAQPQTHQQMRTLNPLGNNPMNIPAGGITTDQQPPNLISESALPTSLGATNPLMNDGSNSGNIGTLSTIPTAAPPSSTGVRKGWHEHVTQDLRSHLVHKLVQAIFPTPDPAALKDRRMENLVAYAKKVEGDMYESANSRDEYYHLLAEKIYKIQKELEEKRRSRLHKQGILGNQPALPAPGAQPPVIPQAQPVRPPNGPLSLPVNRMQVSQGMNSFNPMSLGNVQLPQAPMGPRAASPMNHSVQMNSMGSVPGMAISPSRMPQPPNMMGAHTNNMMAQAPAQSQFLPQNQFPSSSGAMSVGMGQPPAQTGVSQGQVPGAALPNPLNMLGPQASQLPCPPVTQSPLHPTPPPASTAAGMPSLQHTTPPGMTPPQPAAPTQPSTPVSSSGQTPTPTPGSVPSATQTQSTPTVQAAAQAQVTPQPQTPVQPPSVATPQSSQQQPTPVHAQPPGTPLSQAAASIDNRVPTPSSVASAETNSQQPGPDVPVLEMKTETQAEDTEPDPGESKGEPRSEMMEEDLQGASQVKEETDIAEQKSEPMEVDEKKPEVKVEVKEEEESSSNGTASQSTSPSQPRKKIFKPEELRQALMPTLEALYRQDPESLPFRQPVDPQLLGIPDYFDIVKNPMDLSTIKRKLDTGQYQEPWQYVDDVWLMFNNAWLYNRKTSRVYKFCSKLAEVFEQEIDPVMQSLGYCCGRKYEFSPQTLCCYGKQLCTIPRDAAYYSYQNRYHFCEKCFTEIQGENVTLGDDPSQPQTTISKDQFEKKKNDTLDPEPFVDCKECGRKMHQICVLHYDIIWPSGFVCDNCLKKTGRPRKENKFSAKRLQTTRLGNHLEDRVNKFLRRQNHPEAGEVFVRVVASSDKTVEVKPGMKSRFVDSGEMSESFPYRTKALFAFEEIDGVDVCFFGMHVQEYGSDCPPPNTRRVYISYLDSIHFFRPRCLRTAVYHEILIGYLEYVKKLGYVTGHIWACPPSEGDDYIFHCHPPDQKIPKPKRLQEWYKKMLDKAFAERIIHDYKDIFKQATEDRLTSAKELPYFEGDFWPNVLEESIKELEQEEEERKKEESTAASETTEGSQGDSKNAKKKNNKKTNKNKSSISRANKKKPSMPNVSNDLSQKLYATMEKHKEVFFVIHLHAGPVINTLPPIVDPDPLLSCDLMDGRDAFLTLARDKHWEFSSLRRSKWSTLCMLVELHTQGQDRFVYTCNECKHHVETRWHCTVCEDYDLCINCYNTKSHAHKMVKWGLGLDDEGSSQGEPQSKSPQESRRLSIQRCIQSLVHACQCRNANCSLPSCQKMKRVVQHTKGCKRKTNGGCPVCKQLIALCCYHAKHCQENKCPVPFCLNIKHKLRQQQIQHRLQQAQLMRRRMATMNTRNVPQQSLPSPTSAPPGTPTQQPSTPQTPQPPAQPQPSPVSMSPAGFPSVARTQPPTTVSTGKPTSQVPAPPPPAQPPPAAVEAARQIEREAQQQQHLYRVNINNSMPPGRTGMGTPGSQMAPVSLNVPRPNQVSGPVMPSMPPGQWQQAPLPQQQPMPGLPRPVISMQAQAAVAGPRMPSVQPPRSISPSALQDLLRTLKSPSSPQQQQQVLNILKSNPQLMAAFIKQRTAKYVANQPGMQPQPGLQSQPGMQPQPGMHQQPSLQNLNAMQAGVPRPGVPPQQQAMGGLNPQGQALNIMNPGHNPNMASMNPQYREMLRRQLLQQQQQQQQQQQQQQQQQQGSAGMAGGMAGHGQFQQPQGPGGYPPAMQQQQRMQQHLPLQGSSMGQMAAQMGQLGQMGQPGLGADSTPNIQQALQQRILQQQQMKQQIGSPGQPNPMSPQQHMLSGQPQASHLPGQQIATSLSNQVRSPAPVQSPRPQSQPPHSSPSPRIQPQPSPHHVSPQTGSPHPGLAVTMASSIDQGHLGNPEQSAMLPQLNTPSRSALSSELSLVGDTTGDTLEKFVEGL
T2 sequence (Q92793 587-666 limits assumed): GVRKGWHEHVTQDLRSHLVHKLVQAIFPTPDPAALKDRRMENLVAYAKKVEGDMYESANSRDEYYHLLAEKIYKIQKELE
T3 sequence (Q92793 2-2442 limits assumed, one chain of several): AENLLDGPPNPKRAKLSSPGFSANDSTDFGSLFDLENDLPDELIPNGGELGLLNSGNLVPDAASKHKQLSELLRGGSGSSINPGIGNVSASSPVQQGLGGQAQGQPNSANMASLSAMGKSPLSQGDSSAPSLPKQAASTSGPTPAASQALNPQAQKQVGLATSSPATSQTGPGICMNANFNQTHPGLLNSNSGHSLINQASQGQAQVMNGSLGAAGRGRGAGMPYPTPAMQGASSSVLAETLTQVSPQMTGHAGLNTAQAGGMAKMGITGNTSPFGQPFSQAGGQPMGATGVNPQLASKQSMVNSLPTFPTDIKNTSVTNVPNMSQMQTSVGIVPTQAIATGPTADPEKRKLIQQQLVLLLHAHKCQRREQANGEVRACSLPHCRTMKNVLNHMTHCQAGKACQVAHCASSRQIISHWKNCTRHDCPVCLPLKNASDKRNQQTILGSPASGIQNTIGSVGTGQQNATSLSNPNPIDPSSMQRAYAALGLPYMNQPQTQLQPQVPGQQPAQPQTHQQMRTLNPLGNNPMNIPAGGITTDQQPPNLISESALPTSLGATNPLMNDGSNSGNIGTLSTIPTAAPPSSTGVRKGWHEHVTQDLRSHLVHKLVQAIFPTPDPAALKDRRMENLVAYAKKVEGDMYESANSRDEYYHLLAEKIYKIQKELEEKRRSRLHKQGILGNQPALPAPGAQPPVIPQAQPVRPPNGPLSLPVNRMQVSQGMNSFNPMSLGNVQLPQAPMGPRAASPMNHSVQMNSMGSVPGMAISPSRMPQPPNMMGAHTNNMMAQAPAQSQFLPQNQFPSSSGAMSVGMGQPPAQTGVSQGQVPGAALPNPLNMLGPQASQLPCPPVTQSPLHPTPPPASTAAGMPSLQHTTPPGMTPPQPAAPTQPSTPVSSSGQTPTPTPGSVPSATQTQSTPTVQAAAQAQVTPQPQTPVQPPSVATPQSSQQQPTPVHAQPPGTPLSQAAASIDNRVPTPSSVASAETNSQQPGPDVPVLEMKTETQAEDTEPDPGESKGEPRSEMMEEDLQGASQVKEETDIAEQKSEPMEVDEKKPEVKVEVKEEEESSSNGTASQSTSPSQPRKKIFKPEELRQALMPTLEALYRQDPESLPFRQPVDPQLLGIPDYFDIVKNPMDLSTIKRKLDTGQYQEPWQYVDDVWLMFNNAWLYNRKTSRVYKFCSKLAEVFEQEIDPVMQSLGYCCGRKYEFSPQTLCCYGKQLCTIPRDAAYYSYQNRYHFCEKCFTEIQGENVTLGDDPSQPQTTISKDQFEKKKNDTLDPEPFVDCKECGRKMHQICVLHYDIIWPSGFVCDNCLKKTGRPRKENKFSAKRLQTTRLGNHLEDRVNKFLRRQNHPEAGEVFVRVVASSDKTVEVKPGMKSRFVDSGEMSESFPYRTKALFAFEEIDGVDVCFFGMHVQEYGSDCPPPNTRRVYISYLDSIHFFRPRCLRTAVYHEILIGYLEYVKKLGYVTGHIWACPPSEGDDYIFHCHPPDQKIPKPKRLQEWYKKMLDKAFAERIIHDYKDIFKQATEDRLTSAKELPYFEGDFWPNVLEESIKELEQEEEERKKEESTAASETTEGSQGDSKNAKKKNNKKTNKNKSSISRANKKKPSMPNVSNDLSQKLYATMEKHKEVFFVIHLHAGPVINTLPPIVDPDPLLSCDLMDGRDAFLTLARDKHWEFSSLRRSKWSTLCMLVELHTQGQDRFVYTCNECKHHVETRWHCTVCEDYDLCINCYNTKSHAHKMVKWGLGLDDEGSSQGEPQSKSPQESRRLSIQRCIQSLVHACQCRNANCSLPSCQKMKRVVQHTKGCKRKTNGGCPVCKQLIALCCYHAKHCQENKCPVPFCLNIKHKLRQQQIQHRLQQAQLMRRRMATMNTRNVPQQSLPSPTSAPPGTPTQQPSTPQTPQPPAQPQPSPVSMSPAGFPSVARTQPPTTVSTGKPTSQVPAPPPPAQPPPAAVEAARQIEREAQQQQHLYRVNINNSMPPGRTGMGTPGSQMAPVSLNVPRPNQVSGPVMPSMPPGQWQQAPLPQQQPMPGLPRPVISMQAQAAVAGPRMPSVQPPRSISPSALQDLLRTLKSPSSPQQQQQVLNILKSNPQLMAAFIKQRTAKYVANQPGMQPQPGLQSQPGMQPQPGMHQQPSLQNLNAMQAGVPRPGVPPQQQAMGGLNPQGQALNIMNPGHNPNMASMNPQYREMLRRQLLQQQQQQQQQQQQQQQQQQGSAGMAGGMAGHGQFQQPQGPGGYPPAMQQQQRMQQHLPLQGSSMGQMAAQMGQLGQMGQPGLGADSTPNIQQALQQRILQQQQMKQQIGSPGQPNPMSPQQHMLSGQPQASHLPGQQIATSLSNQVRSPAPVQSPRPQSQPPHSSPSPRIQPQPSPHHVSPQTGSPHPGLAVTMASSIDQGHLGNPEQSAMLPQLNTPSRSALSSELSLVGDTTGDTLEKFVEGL

Substance: Biotin-YGRKKRRQRRRGGKRIKELELLLMSTENELK-NH2 [BIOMYB]
- binding to / pull-down of CBP [1]: able to pull down CBP; also recorded: specific binding

Substance: FITC-AHA-YGRKKRRQRRR-NH2 [FITC-TAT]
- intranuclear penetration (FITC-Hoechst overlay) (MOLM13 cells): overlap of FITC and Hoechst in the nucleus
- intranuclear penetration (FITC-Hoechst overlay) (MOLM13 cells; listed as SEQ ID NO:6): intranuclear penetration
- KD (apparent binding affinity to purified KIX) (purified CBP-KIX domain): no interaction seen

Substance: [Ac]-KLGNETSMGLLELEKIGKGG-RRRQRRKKRGY-[NH2] [TG3, reference compound]
- AML cell death (live cells on Day 6) [2]: inactive
- MYB:CBP complex in cells (MYB:CBP complex): inactive

Substance: acetyl-KLENETSMLLLELEKIRKGGRRRQRRKKRGYK-biotin-NH2 [RI-BIOMYB]
- binding to / pull-down of CBP [1]: specific binding
